Measured values: paper PMC11224282, “Insight into binding of endogenous neurosteroid ligands to the sigma-1 receptor” (Nature Communications, 2024)
Read-outs that look alike come from different tables or passages of the source.

Target: T1, xlσ1R E169A (Xenopus laevis, UniProt Q6DCU6, E169A)
T1 construct: hemagglutinin signal peptide (N); made in house; host or cells: Pichia pastoris GS115
T1 sequence (Q6DCU6 1-221 E169A): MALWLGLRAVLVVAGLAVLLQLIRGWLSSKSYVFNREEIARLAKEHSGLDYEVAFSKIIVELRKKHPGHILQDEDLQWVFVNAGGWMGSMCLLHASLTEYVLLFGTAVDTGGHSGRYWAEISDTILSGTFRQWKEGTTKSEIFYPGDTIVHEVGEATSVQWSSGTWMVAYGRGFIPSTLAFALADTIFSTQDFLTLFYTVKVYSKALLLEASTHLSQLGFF
Assay: Microscale thermophoresis (MST) binding to xlσ1R E169A mutant

SMILES: CC(=O)[C@H]1CC[C@H]2[C@@H]3CCC4=CC(=O)CC[C@]4(C)[C@H]3CC[C@]12C [progesterone]
- Kd (MST, xlσ1R E169A, N = 3, mean (± SD), read-out: Kd (mean)): 980 ± 180 nM
- Kd (Source Data sheet Supplementary Table 3, E169A, mean of 3, read-out: Kd Mean): 990 nM
- Kd (Source Data sheet Supplementary Table 3, E169A, repeat 1, read-out: Kd Repeat 1): 920 nM
- Kd (Source Data sheet Supplementary Table 3, E169A, repeat 2, read-out: Kd Repeat 2): 1190 nM
- Kd (Source Data sheet Supplementary Table 3, E169A, repeat 3, read-out: Kd Repeat 3): 850 nM
